One experiment addresses HIV-1 RT WT (Human immunodeficiency virus type 1 group M subtype B, UniProt P04585). Put plainly: biochemical. As for the experimental part:
(§1) Plasmids pET-RT66 and p6H-RT51, which overexpress HIV-1 RT subunits p66 and His6-tagged p51, were generously provided by Samuel Wilson (NIH). Mutations K103N and Y181C were each introduced into pET-RT66 using QuikChange^TM mutagenesis. Subunits p66 and His6-p51 were overproduced in E. coli strains BL21/DE3 and DH5α, respectively, and the RT heterodimer (WT or mutant forms) was reconstituted in mixed lysates and purified essentially as described. Each overexpression strain was grown in LB medium with appropriate antibiotics at 37 °C until the culture reached an OD600 of 0.6, IPTG (0.5 mM) was added, and the culture was further incubated for 3.5 h to allow ample protein production. Cells (from 4 L culture) were pelleted and stored at −20 °C. All subsequent steps were performed at 4 °C. Each cell pellet was resuspended in 20 mL buffer A [50 mM Tris-HCl (pH 7.9), 60 mM NaCl, 10% glycerol, 1 mM βME, and protease inhibitors (Protease Inhibitor Cocktail, Roche Diagnostics)], and the cells were lysed using a French Press. The lysate was clarified by centrifugation at 5900 g for 15 min, and the protein concentration of each lysate was estimated using the Bradford assay. Based on these estimates, each p66 strain lysate was separately mixed with p51 strain lysate in a 3:1 ratio. Each mixture was passed through a Q-Sepharose column (2 mL, Bio-Rad), pre-equilibrated with buffer A, and the flow-through (containing HIV-1 RT) was collected. NaCl (0.5 M), imidazole (10 mM), and 4 mL of His-Bind nickel column resin (Ni-NTA Agarose, QIAGEN) pre-equilibrated in buffer B [50 mM Tris-HCl (pH 7.9), 500 mM NaCl, 10 mM imidazole, 10% glycerol, and 1 mM βME] were added, and the mixture was rotated for 1 h. The resin was poured into a column and washed with 10 column volumes (CV) of buffer B, 10 CV of buffer C [50 mM Tris-HCl (pH 7.9), 1 M NaCl, 10 mM imidazole, 10% glycerol, and 1 mM βME], and 10 CV of buffer D [50 mM Tris-HCl (pH 7.9), 1 M NaCl, 15 mM imidazole, 10% glycerol, and 1 mM βME]. Proteins were eluted from the column with an imidazole gradient (10–500 mM) in buffer B. Fractions (0.5 mL) were collected, and DTT (2 mM) and EDTA (5 mM) were added to each fraction. Fractions were analyzed by SDS-PAGE, and those containing p66 and p51 at a 1:1 ratio were pooled. The RT was further purified using a FPLC RESOURCE S column (6 mL, GE Healthcare). The protein was bound to the column, washed with 10 CV of buffer E [50 mM Tris-HCl (pH 6.5), 60 mM NaCl, 10% glycerol, and 1 mM βME], and eluted using a NaCl gradient. Fractions (0.5 mL) containing purified RT with p66 and p51 subunits at a 1:1 ratio were pooled, dialyzed against buffer F [50 mM Tris-HCl (pH 7.5), 100 mM NaCl, 1 mM βME, and 10% glycerol], and stored at −20 °C.
(§2) To assay multi-nucleotide incorporation by RT, 5′-[^32P]-labeled primer (~0.05 µM) was annealed to mRNA (0.33 µM, unless otherwise indicated), RT (HIV-1 or AMV; 32 nM) and the four deoxynucleotide triphosphates (dNTPs; 375 µM each) in buffer G [10 mM Tris-HCl (pH 7.5), 60 mM NH4Cl, 10 mM MgCl2, and 6 mM βME] were added, in the absence or presence of inhibitor (as indicated), and reactions were incubated at 37 °C for 10 min. An equal volume of stop buffer (95% formamide, 20 mM EDTA, 0.05% xylene cyanol, and 0.05% bromophenol blue) was added, and products were analyzed by denaturing 7% PAGE. The relative amount of the full-length cDNA product (y) was plotted as a function of inhibitor concentration, and the data were fit to the modified dose response equation y = a + b/[1 + (x/c)]

The target in a further experiment is T1, HIV-1 RT K103N (Human immunodeficiency virus type 1 group M subtype B, UniProt P04585, K690N).
T1 construct: overexpress HIV-1 RT subunits p66 and His6-tagged p51; made in house; host or cells: E. coli BL21/DE3 (p66) and DH5α (His6-p51)
Put plainly: Multi-nucleotide primer extension assay, K103N HIV-1 RT. Format: biochemical. The note with it: mean ± SEM from 3 or more independent experiments. The method, then:
as §1, §2

The target of a further experiment is T2, HIV-1 RT Y181C (Human immunodeficiency virus type 1 group M subtype B, UniProt P04585, Y768C).
T2 construct: overexpress HIV-1 RT subunits p66 and His6-tagged p51; made in house; host or cells: E. coli BL21/DE3 (p66) and DH5α (His6-p51)
The experiment in a line: Multi-nucleotide primer extension assay, Y181C HIV-1 RT. Format: biochemical. As for the experimental part:
as §1, §2

For experiment [1], the target named is Radiolabeled DNA oligonucleotide. The experiment in a line: Ultrafiltration binding experiment, DNA oligonucleotide. The note with it: fraction in complexes >300 kDa by ultrafiltration (300 kDa MWCO), buffer H, 25 °C, 15 min, read-out: apparent KD, DNA oligonucleotide. The method, then: (§3) For binding reactions, components were incubated in buffer H at 25 °C for 15 min. The fraction of bound 5′-[^32P]-labeled nucleic acid was evaluated using native 6% PAGE or ultrafiltration devices (Nanosep Omega, PALL Life Sciences).

In experiment [2] the target is Radiolabeled RNA oligonucleotide. The experiment in a line: Ultrafiltration binding experiment, RNA oligonucleotide. The note with it: fraction in complexes >300 kDa by ultrafiltration (300 kDa MWCO), buffer H, 25 °C, 15 min, read-out: apparent KD, RNA oligonucleotide. The method, then: as §3
Experiment [3] deals with radiolabeled 18mer DNA oligonucleotide. The experiment in a line: Gel mobility shift experiment (native PAGE). It counts as binding. The note with it: compound 100 µM preincubated with 18mer DNA, native gel electrophoresis. The method, then: as §3
For experiment [4], the system named is avian myeloblastosis virus (AMV) reverse transcriptase (RT). Put plainly: Multi-nucleotide primer extension assay, AMV RT. Format: biochemical. To be noted: primer extension on RNA template, 10 min at 37 °C; read-out: IC50, full-length cDNA product, AMV RT. As for the experimental part:
as §2

The test system of the next experiment is AMV RT. The experiment in a line: Single-nucleotide incorporation kinetics (quench-flow), AMV RT. The note with it: read-out: IC50, amplitude of single-nucleotide incorporation. Format: biochemical, avian myeloblastosis virus. The method, then:
(§4) Single-nucleotide incorporation by RT was measured using a quench-flow machine (KinTek RQF-3). Typically, 5′-[^32P]-labeled primer (<0.05 µM) was annealed to mRNA (0.2 µM), equilibrated in buffer H [Tris-HCl (pH 7.5), 80 mM KCl, 20 mM MgCl2, 2 mM DTT] with RT (AMV or HIV-1, as indicated) in the absence or presence of inhibitor (as indicated), and rapidly mixed with dATP (variable concentration, as indicated). Each reaction was quenched with 0.5 M EDTA at various time points; the data were plotted and fit to a single exponential equation to obtain observed rate and amplitude.

The target in the next experiment is T3, HIV-1 RT (Human immunodeficiency virus type 1 group M subtype B, UniProt P04585).
T3 construct: overexpress HIV-1 RT subunits p66 and His6-tagged p51; made in house; host or cells: E. coli BL21/DE3 (p66) and DH5α (His6-p51)
The experiment in a line: Order-of-addition single-nucleotide incorporation, HIV-1 RT. It counts as biochemical. The note with it: 20 min 37 °C, then combined 1 min. The method, then: as §4

Several values for one entry are separate records, joined by “and”; a condition that tells them apart may be missing. Identical values can stand only once. Like-named read-outs stand apart in the source and are kept apart here.

Consider `CCCCCCCCCCCCSC[C@H]1O[C@H](O[C@@H]2[C@@H](O)[C@H](O[C@H]3O[C@H](CN)[C@@H](O)[C@H](O)[C@H]3N)[C@@H](N)C[C@H]2N)[C@H](O)[C@@H](N)[C@@H]1O` [KANB-C12], for which the IC50 at HIV-1 RT WT was determined as 1900 ± 300 nM; against HIV-1 RT K103N, 2 ± 0.2 µM; against HIV-1 RT Y181C, 500 ± 300 nM. Further, the Kd was 600 nM in [1] (listed as KAN-C12), around 1000 nM in experiment [1], 1100 nM in experiment [2] (listed as KAN-C12) and around 1000 nM in experiment [2]. In [3], the “Gel mobility shift of oligonucleotide” value is recorded as “all signal was shifted to the well”.

As to `CCCCCCCCCCCCCCSC[C@H]1O[C@H](O[C@@H]2[C@@H](O)[C@H](O[C@H]3O[C@H](CN)[C@@H](O)C[C@H]3N)[C@@H](N)C[C@H]2N)[C@H](O)[C@@H](N)[C@@H]1O` [TOB-C14], the IC50 is ~1000 nM and 1100 nM in experiment [4]; 1900 ± 300 nM against HIV-1 RT WT; 1.2 ± 0.6 µM at HIV-1 RT K103N; 1400 ± 400 nM against HIV-1 RT Y181C.

On to `CCCCCCCCSC[C@H]1O[C@H](O[C@@H]2[C@@H](O)[C@H](O[C@H]3O[C@H](CN)[C@@H](O)[C@H](O)[C@H]3N)[C@@H](N)C[C@H]2N)[C@H](O)[C@@H](N)[C@@H]1O` [KANB-C8], for which the IC50 at HIV-1 RT WT was 8000 ± 3000 nM; on HIV-1 RT K103N it was 7 ± 1 µM; at HIV-1 RT Y181C, 8000 ± 2000 nM.

For the compound `CCCCCCCCCCSC[C@H]1O[C@H](O[C@@H]2[C@@H](O)[C@H](O[C@H]3O[C@H](CN)[C@@H](O)[C@H](O)[C@H]3N)[C@@H](N)C[C@H]2N)[C@H](O)[C@@H](N)[C@@H]1O` [KANB-C10], the IC50 against HIV-1 RT WT worked out at 3800 ± 300 nM; at HIV-1 RT K103N, 1.9 ± 0.3 µM; against HIV-1 RT Y181C it was 1000 ± 600 nM.

As to `NC[C@H]1O[C@H](O[C@H]2[C@H](O)[C@@H](O[C@H]3O[C@H](CSc4ccc5ccccc5c4)[C@@H](O)[C@H](N)[C@H]3O)[C@H](N)C[C@@H]2N)[C@H](N)C[C@@H]1O` [TOB-Nap], the IC50 is 23000 nM in experiment [4], 40000 ± 5000 nM against HIV-1 RT WT, 40 ± 11 µM against HIV-1 RT K103N and 12000 ± 4000 nM against HIV-1 RT Y181C.

As to `CCCCCCCCCCCCSC[C@H]1O[C@H](O[C@@H]2[C@@H](O)[C@H](O[C@H]3O[C@H](CN)[C@@H](O)C[C@H]3N)[C@@H](N)C[C@H]2N)[C@H](O)[C@@H](N)[C@@H]1O` [TOB-C12], the IC50 in experiment [4] is ~1000 nM and 1600 nM; at HIV-1 RT WT it was 300 ± 100 nM; at HIV-1 RT K103N it was 0.6 ± 0.1 µM; on HIV-1 RT Y181C it was 500 ± 100 nM; with AMV RT (dATP at 10 µM), 13000 nM; in the experiment on AMV RT (dATP at 150 µM) it was 17000 nM. Moreover, the “Product formation, single-nucleotide incorporation” value at HIV-1 RT (compound preincubated with RT) is given as “hindered product formation to a lesser degree”; at HIV-1 RT (compound preincubated with primer:template in the absence of RT) it was “no detectable product”.
